Data on 26 compounds can be found in patent US20080090834A1, “SELECTIVE AZOLE PDE10A INHIBITOR COMPOUNDS” (Pfizer Inc, priority 2006, published 2008).

Structures are written as SMILES. Counter-ions that a name gives are not always drawn.

The target of the assay is T1, cloned rat PDE10A full-length enzyme (Rattus norvegicus, UniProt Q9QYJ6).
T1 construct: cloned rat PDE10A full-length enzyme grown in transfected Sf9 insect cells; made in house; host or cells: Sf9 insect cells
T1 sequence (Q9QYJ6 1-794): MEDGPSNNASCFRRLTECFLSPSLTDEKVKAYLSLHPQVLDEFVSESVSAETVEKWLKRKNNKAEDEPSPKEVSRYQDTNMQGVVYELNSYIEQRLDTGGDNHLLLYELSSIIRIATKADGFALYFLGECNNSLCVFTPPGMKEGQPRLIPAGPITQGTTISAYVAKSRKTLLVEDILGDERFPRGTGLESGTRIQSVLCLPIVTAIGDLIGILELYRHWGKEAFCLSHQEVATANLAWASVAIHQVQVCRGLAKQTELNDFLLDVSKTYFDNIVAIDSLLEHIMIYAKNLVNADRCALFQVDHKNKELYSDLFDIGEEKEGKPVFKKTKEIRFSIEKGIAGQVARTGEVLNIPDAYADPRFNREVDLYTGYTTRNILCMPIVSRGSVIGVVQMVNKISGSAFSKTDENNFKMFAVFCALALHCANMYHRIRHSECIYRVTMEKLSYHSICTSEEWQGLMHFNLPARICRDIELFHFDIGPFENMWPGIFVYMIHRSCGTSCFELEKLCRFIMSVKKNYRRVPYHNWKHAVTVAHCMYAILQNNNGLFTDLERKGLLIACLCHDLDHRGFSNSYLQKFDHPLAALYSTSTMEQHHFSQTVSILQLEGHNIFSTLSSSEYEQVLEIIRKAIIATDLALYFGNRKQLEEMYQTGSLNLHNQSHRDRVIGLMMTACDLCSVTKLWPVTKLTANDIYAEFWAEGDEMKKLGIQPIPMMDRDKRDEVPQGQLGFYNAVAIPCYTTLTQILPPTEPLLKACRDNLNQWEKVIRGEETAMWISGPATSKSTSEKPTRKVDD
The assay is described as follows: PDE10 enzyme inhibition, [3H]cAMP scintillation proximity assay. Type of assay: biochemical. Particulars: rat PDE10A from Sf9 cells, 20 nM [3H]cAMP, SPA beads, 20 minute incubation at room temperature. The protocol:
Compounds of the present invention were evaluated for ability to inhibit PDE10 enzyme with the following Assay procedure
The enzyme used in the procedure was cloned rat PDE10A full-length enzyme grown in transfected Sf9 insect cells. Cloned enzyme was extracted from homogenized cell pellets and stored frozen in homogenizing buffer until use. Compounds were initially dissolved in 100% DMSO and diluted out in 20 percent DMSO/water solution. Final concentration of DMSO in the assay was 2 percent as compounds were tested in triplicate in 96 well plates. Compound solution was placed in well, then tritiated cyclic AMP (New England Nuclear NET275) in assay buffer was added at 20 nM concentration. Then PDE10 enzyme in assay buffer of 50 mM Tris, 8.3 mM MgCl2, pH 7.5 at room temperature was added for a final assay volume of 100 ul. Concentration of enzyme was added such that less than 10 percent of [3H]cAMP at 20 nM was converted to detectable end product, [3H]AMP bound to SPA (Scintillation Proximity Assay) beads. Phosphodiesterase scintillation proximity yttrium silicate beads from Amersham Biosciences (RPNQ0150) were added (50 ul at 20 mg/ml) after a 20 minute incubation at room temperature. Zinc sulphate as a component of the beads stops the phosphodiesterase reaction.
Non-specific binding to SPA beads was determined by addition of 1 uM papaverine. Total conversion by enzyme without inhibitor of [3H]cAMP to [3H]AMP, as detected by scintillation of [3H]AMP bound to yttrium silicate beads, was determined in the presence of vehicle-only.
Turning to `c1cnc2c(c1)ccn2-c1ccc(-c2nc(-c3nccs3)cn2-c2cncnc2)cc1` [Example 26, 1-(4-(1-(pyrimidin-5-yl)-4-(thiazol-2-yl)-1H-imidazol-2-yl)phenyl)-1H-pyrrolo[2,3-b]pyridine], the IC50 (commonly the concentration that inhibits the measured activity by half) is 4.4 nM.

In turn, `Cc1ccc(-n2cc(-c3nccs3)nc2-c2ccc(-n3ccc4cccnc43)cc2)cn1` [Example 27, 1-(4-(1-(6-methylpyridin-3-yl)-4-(thiazol-2-yl)-1H-imidazol-2-yl)phenyl)-1H-pyrrolo[2,3-b]pyridine] had an IC50 of 1.48 nM.

In turn, `Cc1ncccc1-n1cc(-c2nccs2)nc1-c1ccc(-n2ccc3cccnc32)cc1` [Example 28, 1-(4-(1-(2-methylpyridin-3-yl)-4-(thiazol-2-yl)-1H-imidazol-2-yl)phenyl]-1H-pyrrolo[2,3-b]pyridine] displayed a concentration for half-maximal inhibition (IC50) of 44.1 nM.

Compound `COc1ccc(-n2cc(-c3nccs3)nc2-c2ccc(-n3ccc4cccnc43)cc2)cn1` [Example 29, 1-(4-(1-(6-methoxypyridin-3-yl)-4-(thiazol-2-yl)-1H-imidazol-2-yl)phenyl)-1H-pyrrolo[2,3-b]pyridine] gave an IC50 of 0.383 nM.

In turn, `CN(C)c1ccc(-n2cc(-c3nccs3)nc2-c2ccc(-n3ccc4cccnc43)cc2)cn1` [Example 30, 5-(2-(4-(1H-pyrrolo[2,3-b]pyridin-1-yl)phenyl)-4-(thiazol-2-yl)-1H-imidazol-1-yl)-N,N′-dimethylpyridin-2-mine] had an IC50 of 0.607 nM.

The compound `CNCCc1ccc(-n2cc(-c3nccs3)nc2-c2ccc(-n3ccc4cccnc43)cc2)cc1` [Example 31] returned an IC50 of 6.63 nM.

Regarding `FC(F)(F)c1ccc(-n2cc(-c3nccs3)nc2-c2ccc(-n3ccc4cccnc43)cc2)cn1` [Example 32, 1-(4-(1-(6-(trifluoromethyl)pyridin-3-yl)-4-(thiazol-2-yl)-1H-imidazol-2-yl)phenyl)-1H-pyrrolo[2,3-b]pyridine], the IC50 was determined as 2.13 nM. Against the preceding compound, the IC50 is about 3.1-fold lower.

In the case of `CNCc1ccc(-n2cc(-c3nccs3)nc2-c2ccc(-n3ccc4cccnc43)cc2)cc1` [Example 33, (4-(2-(4-(1H-pyrrolo[2,3-b]pyridin-1-yl)phenyl)-4-(thiazol-2-yl)-1H-imidazol-1-yl)phenyl-N-methylmethanamine Hydrochloride], the IC50 was found to be 14.1 nM.

`c1cnc2c(c1)ccn2-c1ccc(-c2nc(-c3nccs3)cn2-c2ccc(N3CCOCC3)nc2)cc1` [Example 34, 1-(4-(1-(6-morpholinopyridin-3-yl)-4-(thiazol-2-yl)-1H-imidazol-2-yl)phenyl)-1H-pyrrolo[2,3-b]pyridine] came in with an IC50 of 0.436 nM.

`c1ccc(-c2cn(-c3cccnc3)c(-c3ccc(-n4ncc5ccccc54)cc3)n2)nc1` [Example 35, 1-(4-(4-(pyridin-2-yl)-1-(pyridin-3-yl)-1H-imidazol-2-yl)phenyl)-1H-indazole] had an IC50 of 27.8 nM. This IC50 lies about 64-fold higher than the previous one.

`c1ccc(-c2cn(-c3cccnc3)c(-c3ccc(-n4ccc5ccccc54)cc3)n2)nc1` [Example 36, 1-(4-(4-(pyridin-2-yl)-1-(pyridin-3-yl)-1H-imidazol-2-yl)phenyl)-1H-indole] gave an IC50 of 281 nM.

Consider `Fc1cccc2ccn(-c3ccc(-c4nc(-c5ccccn5)cn4-c4cccnc4)cc3)c12` [Example 37], for which the IC50 amounted to 30.8 nM.

In turn, `Fc1c(F)c(F)c2c(ccn2-c2ccc(-c3nc(-c4ccccn4)cn3-c3cccnc3)cc2)c1F` [Example 38, 4,5,6,7-tetratfluoro-1-(4-(4-(pyridin-2-yl)-1-(pyridin-3-yl)-1H-imidazol-2-yl)phenyl)-1H-indole] registered an IC50 of 170 nM.

`Clc1cccc2c1ccn2-c1ccc(-c2nc(-c3ccccn3)cn2-c2cccnc2)cc1` [Example 39, 4-chloro-1-(4-(4-(pyridin-2-yl)-1-(pyridin-3-yl)-1H-imidazol-2-y TFA salt]: the IC50 was found to be 113 nM. Compared with the last compound, the IC50 is about 1.5-fold lower.

`N#Cc1cccc2c1ccn2-c1ccc(-c2nc(-c3ccccn3)cn2-c2cccnc2)cc1` [Example 40, 1-(4-(4-(pyridin-2-yl)-1-(pyridin-3-yl)-1H-imidazol-2-yl)phenyl)-1H-indole-4-carbonitrile bis-TFA salt] displayed an IC50 of 65.4 nM.

Compound `Cc1cn(-c2ccc(-c3nc(-c4ccccn4)cn3-c3cccnc3)cc2)cn1` [Example 41, 3-(2-(4-(4-methyl-1H-imidazol-1-yl)phenyl)-4-(pyridin-2-yl)-1H-imidazol-1-yl)pyridine] had an IC50 of 293 nM.

`c1ccc(-c2cn(-c3cccnc3)c(-c3ccc(-n4nnc5ccccc54)cc3)n2)nc1` [Example 42, 1-(4-(4-(pyridin-2-yl)-1-(pyridin-3-yl)-1H-imidazol-2-yl)phenyl)-1H-benzo[d][1,2,3]triazole bis-TFA salt] displayed an IC50 of 67.8 nM.

As for `c1ccc(-c2cn(-c3cccnc3)c(-c3ccc(-n4c(-c5ccccn5)nc5ccccc54)cc3)n2)nc1` [Example 43, 2-(pyridin-2-yl)-1-(4-(4-(pyridin-2-yl)-1-(pyridin-3-yl)-1H-imidazol-2-yl)phenyl)-1H-benzo[d]imidazole], 33.1 nM corresponded to half-maximal inhibition (IC50).

Regarding `c1ccc(-c2cn(-c3cccnc3)c(-c3ccc(-n4ccnc4)cc3)n2)nc1` [Example 44, 3-(2-(4-(1H-imidazol-1-yl)phenyl)-4-(pyridin-2-yl)-1H-imidazol-1-yl)pyridine], the IC50 was found to be 522 nM.

`c1ccc(-c2cn(-c3cccnc3)c(-c3ccc(-n4cnc5ccccc54)cc3)n2)nc1` [Example 45, 1-(4-(4-(pyridin-2-yl)-1-(pyridin-3-yl)-1H-imidazol-2-yl)phenyl)-1H-benzo[d]imidazole] showed an IC50 of 97.8 nM. This IC50 lies about 5.3-fold lower than the previous one.

`Cc1ccc(-n2cc(-c3ccccn3)nc2-c2ccc(-n3ccc4nccnc43)cc2)cn1` [Example 50, 5-(4-(1-(6-methylpyridin-3-yl)-4-(pyridin-2-yl)-1H-imidazol-2-yl)phenyl)-5H-pyrrolo[3,2-b]pyrazine] displayed an IC50 of less than 3.47 nM.

In the case of `c1ccc(-c2cn(-c3cccnc3)c(-c3ccc(-n4nnc5cccnc54)cc3)n2)nc1` [Example 51, 3(4-(4-(pyridin-2-yl)-1-(pyridin-3-yl)-1H-imidazol-2-yl)phenyl)-3H-[1,2,3]triazole[4,5-b]pyridine bis-TFA salt], the midpoint of inhibition, the IC50, lay at 11.5 nM.

In the case of `Cc1ccc(-n2cc(-c3ccccn3)nc2-c2ccc(-n3ccc4ncccc43)cc2)cn1` [Example 52, 1-(4-(1-(6-methylpyridin-3-yl)-4-(pyridin-2-yl)-1H-imidazol-2-yl)phenyl)-1H-pyrrolo[3,2-b]pyridine], half-maximal inhibition (IC50) required 9.32 nM.

`Cc1ccc(-n2cc(-c3ccccn3)nc2-c2ccc(-n3ccc4ccncc43)cc2)cn1` [Example 53]: half-maximal inhibition (IC50) was put at 5.69 nM.

In turn, `Cc1ccc(-n2cc(-c3ccccn3)nc2-c2ccc(-n3ccc4cnccc43)cc2)cn1` [Example 54, 1-(4-(1-(6-methylpyridine-3-yl)-4-(pyridin-2-yl)-1H-imidazol-2-yl)phenyl)-1H-pyrrolo[3,2-c]pyridine] registered an IC50 of 5.82 nM.

In turn, `Cc1ccc(-n2cc(-c3ccccn3)nc2-c2ccc(-n3cnc4cncnc43)cc2)cn1` [Example 55, 9-(4-(1-(6-methylpyridin-3-yl)-4-(pyridin-2-yl)-1H-imidazol-2-yl)phenyl-9H-purine and 7-(4-(1-(6-methylpyridin-3-yl)-4-pyridin-2-yl)-1H-imidazol-2-yl))phenyl)-7H-purine] returned an IC50 of 10.2 nM.
